Measurements: ChEMBL document CHEMBL3407452, “Linear and branched alkyl-esters and amides of gallic acid and other (mono-, di- and tri-) hydroxy benzoyl derivatives as promising anti-HCV inhibitors” (Eur J Med Chem, 2015)
The source made the active and inactive calls. The calls are words filed in the database; no cut-off is given here.

What was measured:
[1] = tested on: Human immunodeficiency virus 1; assay: Antiviral activity against HIV1 3B infected in human CEM cells assessed as reduction in virus-induced cytopathicity after 4 to 5 days by microscopy based syncytium cell formation assay; assay type: functional, organism-based, CCRF-CEM
[2] = tested on: Human immunodeficiency virus 2; assay: Antiviral activity against HIV2 ROD infected in human CEM cells assessed as reduction in virus-induced cytopathicity after 4 to 5 days by microscopy based syncytium cell formation assay; assay type: functional, organism-based, ISOLATE ROD, CCRF-CEM; conditions: ccrf-cem
Hepatitis C virus = assay: Antiviral activity against HCV genotype 1b I389luc-ubi-neo/NS3-3'/5.1 replicons infected in human Huh5-2 HCV subgenomic replicon-containing cells assessed as reduction in virus replication after 3 days by luciferase reporter gene assay; assay type: functional, Hepacivirus hominis; conditions: for EC90: Hepacivirus hominis
[3] = Cytotoxicity against human CEM cells assessed as inhibition of cell proliferation; assay type: cell-based; conditions: CEM cells (CCRF-CEM)
Reovirus sp. = assay: Antiviral activity against reovirus; assay type: functional, organism-based
Vaccinia virus = assay: Antiviral activity against vaccinia virus; assay type: functional, organism-based; conditions: Orthopoxvirus vaccinia
Influenza A virus = assay: Antiviral activity against influenza A virus (H1N1); assay type: functional, organism-based
Coxsackievirus B4 = assay: Antiviral activity against human coxsackievirus B4; assay type: functional, organism-based
Sindbis virus = assay: Antiviral activity against sindbis virus; assay type: functional, organism-based
[4] = tested on: Vesicular stomatitis virus; assay: Antiviral activity against vesicular stomatitis virus; assay type: functional, organism-based
Influenza A virus H3N2 = assay: Antiviral activity against influenza A virus H3N2; assay type: functional, organism-based
Chikungunya virus = assay: Antiviral activity against chikungunya virus; assay type: functional
Felid alphaherpesvirus 1 = assay: Antiviral activity against feline herpesvirus; assay type: functional, organism-based
Human respirovirus 3 = assay: Antiviral activity against human parainfluenza virus 3; assay type: functional, organism-based
Feline coronavirus = assay: Antiviral activity against feline coronavirus; assay type: functional, organism-based
[5] = tested on: Respiratory syncytial virus; assay: Antiviral activity against RSV; assay type: functional, organism-based
Punta Toro virus = assay: Antiviral activity against punta toro virus; assay type: functional, organism-based
[6] = Human immunodeficiency virus 1, 3B, CCRF-CEM, read-out: EC50

O=C(NCCCCCCCCCCCCNC(=O)c1ccc(OCc2ccccc2)c(OCc2ccccc2)c1OCc1ccccc1)c1ccc(OCc2ccccc2)c(OCc2ccccc2)c1OCc1ccccc1
EC50 ([1]; ccrf-cem): Not Active
EC50 [2]: Not Active
EC50 (Hepatitis C virus): Not Active
EC90 (Hepatitis C virus): inactive

COc1cc(C(=O)NCCCCCCNC(=O)c2cc(OC)c(OC)c(OC)c2)cc(OC)c1OC
EC50 ([1]; ccrf-cem): Not Active
EC50 [2]: Not Active
EC50 (Hepatitis C virus): Not Active
EC90 (Hepatitis C virus): inactive

COc1cc(C(=O)NCCN(CCNC(=O)c2cc(OC)c(OC)c(OC)c2)CCNC(=O)c2cc(OC)c(OC)c(OC)c2)cc(OC)c1OC
EC50 ([1]; ccrf-cem): Not Active
EC50 [2]: Not Active
EC50 (Hepatitis C virus): Not Active
EC90 (Hepatitis C virus): inactive

COc1cc(C(=O)NCCCCCCCCNC(=O)c2cc(OC)c(OC)c(OC)c2)cc(OC)c1OC
EC50 ([1]; ccrf-cem): Not Active
EC50 [2]: Not Active
EC50 (Hepatitis C virus): Not Active
EC90 (Hepatitis C virus): inactive

O=C(NCCCCNC(=O)c1ccc(OCc2ccccc2)c(OCc2ccccc2)c1OCc1ccccc1)c1ccc(OCc2ccccc2)c(OCc2ccccc2)c1OCc1ccccc1
EC50 ([1]; ccrf-cem): Not Active
EC50 [2]: Not Active
EC50 (Hepatitis C virus): Not Active
EC90 (Hepatitis C virus): inactive

COc1cc(C(=O)NCCCCCCCCCCCCNC(=O)c2cc(OC)c(OC)c(OC)c2)cc(OC)c1OC
EC50 ([1]; ccrf-cem): Not Active
EC50 [2]: Not Active
EC50 (Hepatitis C virus): Not Active
EC90 (Hepatitis C virus): inactive

COc1cccc(C(=O)NCCCCCCCCCCCCNC(=O)c2cccc(OC)c2OC)c1OC
EC50 ([1]; ccrf-cem): Not Active
EC50 [2]: Not Active
EC50 (Hepatitis C virus): Not Active
EC90 (Hepatitis C virus): inactive

COc1cc(C(=O)NCCCCCCCCCCNC(=O)c2cc(OC)c(OC)c(OC)c2)cc(OC)c1OC
EC50 ([1]; ccrf-cem): Not Active
EC50 [2]: Not Active
EC50 (Hepatitis C virus): Not Active
EC90 (Hepatitis C virus): inactive

O=C(NCCNC(=O)c1ccccc1OCc1ccccc1)c1ccccc1OCc1ccccc1
EC50 ([1]; ccrf-cem): Not Active
EC50 [2]: Not Active
EC50 (Hepatitis C virus): Not Active
EC90 (Hepatitis C virus): inactive

COc1cc(C(=O)NCCN(CCNC(=O)c2cc(OC)c(OC)c(OC)c2)C(=O)c2cc(OC)c(OC)c(OC)c2)cc(OC)c1OC
EC50 ([1]; ccrf-cem): Not Active
EC50 [2]: Not Active
EC50 (Hepatitis C virus): Not Active
EC90 (Hepatitis C virus): inactive

C[C@H](Cn1cnc2c(N)ncnc21)OCP(=O)(O)O [TENOFOVIR ANHYDROUS]
CC50 [3]: > 100 µM

O=C(NCCCCNC(=O)c1cccc(O)c1O)c1cccc(O)c1O
Activity (Reovirus sp.): inactive
Activity (Vaccinia virus): inactive
Activity (Influenza A virus): inactive
Activity (Coxsackievirus B4): inactive
Activity (Sindbis virus): inactive
EC50 [1, 6]: > 2 µM
Activity [4]: inactive
Activity (Influenza A virus H3N2): inactive
Activity (Chikungunya virus): inactive
Activity (Felid alphaherpesvirus 1): inactive
Activity (Human respirovirus 3): inactive
Activity (Feline coronavirus): inactive
CC50 [3]: 5.2 µM
Activity [5]: inactive
Activity (Punta Toro virus): inactive

COc1cccc(C(=O)NCCNC(=O)c2cccc(OC)c2OC)c1OC
EC50 ([1]; ccrf-cem): Not Active
EC50 [2]: Not Active
EC50 (Hepatitis C virus): Not Active
EC90 (Hepatitis C virus): inactive

O=C(NCCCOCCOCCOCCCNC(=O)c1ccc(OCc2ccccc2)c(OCc2ccccc2)c1OCc1ccccc1)c1ccc(OCc2ccccc2)c(OCc2ccccc2)c1OCc1ccccc1
EC50 ([1]; ccrf-cem): Not Active
EC50 [2]: Not Active
EC50 (Hepatitis C virus): Not Active
EC90 (Hepatitis C virus): inactive

COc1cccc(C(=O)NCCCCNC(=O)c2cccc(OC)c2OC)c1OC
EC50 ([1]; ccrf-cem): Not Active
EC50 [2]: Not Active
EC50 (Hepatitis C virus): Not Active
EC90 (Hepatitis C virus): inactive

O=C(NCCN(CCNC(=O)c1ccc(OCc2ccccc2)c(OCc2ccccc2)c1OCc1ccccc1)CCNC(=O)c1ccc(OCc2ccccc2)c(OCc2ccccc2)c1OCc1ccccc1)c1ccc(OCc2ccccc2)c(OCc2ccccc2)c1OCc1ccccc1
EC50 ([1]; ccrf-cem): Not Active
EC50 [2]: Not Active
EC50 (Hepatitis C virus): Not Active
EC90 (Hepatitis C virus): inactive

COc1cc(C(=O)NCCN(CCN(CCN(CCNC(=O)c2cc(OC)c(OC)c(OC)c2)C(=O)c2cc(OC)c(OC)c(OC)c2)C(=O)c2cc(OC)c(OC)c(OC)c2)C(=O)c2cc(OC)c(OC)c(OC)c2)cc(OC)c1OC
EC50 ([1]; ccrf-cem): Not Active
EC50 [2]: Not Active
EC50 (Hepatitis C virus): Not Active
EC90 (Hepatitis C virus): inactive

COc1cc(C(=O)NCCCCN(CCCNC(=O)c2cc(OC)c(OC)c(OC)c2)C(=O)c2cc(OC)c(OC)c(OC)c2)cc(OC)c1OC
EC50 ([1]; ccrf-cem): Not Active
EC50 [2]: Not Active
EC50 (Hepatitis C virus): Not Active
EC90 (Hepatitis C virus): inactive

O=C(NCCCCN(CCCNC(=O)c1ccc(OCc2ccccc2)c(OCc2ccccc2)c1OCc1ccccc1)C(=O)c1ccc(OCc2ccccc2)c(OCc2ccccc2)c1OCc1ccccc1)c1ccc(OCc2ccccc2)c(OCc2ccccc2)c1OCc1ccccc1
EC50 ([1]; ccrf-cem): Not Active
EC50 [2]: Not Active
EC50 (Hepatitis C virus): Not Active
EC90 (Hepatitis C virus): inactive

O=C(NCCCCNC(=O)c1ccccc1OCc1ccccc1)c1ccccc1OCc1ccccc1
EC50 ([1]; ccrf-cem): Not Active
EC50 [2]: Not Active
EC50 (Hepatitis C virus): Not Active
EC90 (Hepatitis C virus): inactive

CN[C@@H]1[C@H](O[C@@H]2OC[C@@H](O)[C@H](O)[C@H]2O)[C@@H](O)[C@H](O[C@H]2c3cc(C)c(C(=O)N[C@H](C)C(=O)O)c(O)c3-c3c(cc4c(c3O)C(=O)c3cc(OC)cc(O)c3C4=O)[C@@H]2O)O[C@@H]1C [PRADIMICIN A]
EC50 [1, 6]: 3.3 µM
CC50 [3]: > 100 µM

O=C(NCCCCCCNC(=O)c1ccc(OCc2ccccc2)c(OCc2ccccc2)c1OCc1ccccc1)c1ccc(OCc2ccccc2)c(OCc2ccccc2)c1OCc1ccccc1
EC50 ([1]; ccrf-cem): Not Active
EC50 [2]: Not Active
EC50 (Hepatitis C virus): Not Active
EC90 (Hepatitis C virus): inactive

COc1cc(C(=O)NCCCCNC(=O)c2cc(OC)c(OC)c(OC)c2)cc(OC)c1OC
EC50 ([1]; ccrf-cem): Not Active
EC50 [2]: Not Active
EC50 (Hepatitis C virus): Not Active
EC90 (Hepatitis C virus): inactive

O=C(NCCCCCCCCCCCCNC(=O)c1ccccc1OCc1ccccc1)c1ccccc1OCc1ccccc1
EC50 ([1]; ccrf-cem): Not Active
EC50 [2]: Not Active
EC50 (Hepatitis C virus): Not Active
EC90 (Hepatitis C virus): inactive

O=C(NCCCCCCCCNC(=O)c1ccc(OCc2ccccc2)c(OCc2ccccc2)c1OCc1ccccc1)c1ccc(OCc2ccccc2)c(OCc2ccccc2)c1OCc1ccccc1
EC50 ([1]; ccrf-cem): Not Active
EC50 [2]: Not Active
EC50 (Hepatitis C virus): Not Active
EC90 (Hepatitis C virus): inactive

O=C(NCCCCCCCCCCNC(=O)c1ccc(OCc2ccccc2)c(OCc2ccccc2)c1OCc1ccccc1)c1ccc(OCc2ccccc2)c(OCc2ccccc2)c1OCc1ccccc1
EC50 ([1]; ccrf-cem): Not Active
EC50 [2]: Not Active
EC50 (Hepatitis C virus): Not Active
EC90 (Hepatitis C virus): inactive
